Data on 14 compounds can be found in US7488740B2, “Substituted quinolin-4-ylamine analogues” (Neurogen Corporation, priority 2003, dated 2009).

Some results are limits rather than exact numbers.

T1 sequence (Q8NER1 whole entry): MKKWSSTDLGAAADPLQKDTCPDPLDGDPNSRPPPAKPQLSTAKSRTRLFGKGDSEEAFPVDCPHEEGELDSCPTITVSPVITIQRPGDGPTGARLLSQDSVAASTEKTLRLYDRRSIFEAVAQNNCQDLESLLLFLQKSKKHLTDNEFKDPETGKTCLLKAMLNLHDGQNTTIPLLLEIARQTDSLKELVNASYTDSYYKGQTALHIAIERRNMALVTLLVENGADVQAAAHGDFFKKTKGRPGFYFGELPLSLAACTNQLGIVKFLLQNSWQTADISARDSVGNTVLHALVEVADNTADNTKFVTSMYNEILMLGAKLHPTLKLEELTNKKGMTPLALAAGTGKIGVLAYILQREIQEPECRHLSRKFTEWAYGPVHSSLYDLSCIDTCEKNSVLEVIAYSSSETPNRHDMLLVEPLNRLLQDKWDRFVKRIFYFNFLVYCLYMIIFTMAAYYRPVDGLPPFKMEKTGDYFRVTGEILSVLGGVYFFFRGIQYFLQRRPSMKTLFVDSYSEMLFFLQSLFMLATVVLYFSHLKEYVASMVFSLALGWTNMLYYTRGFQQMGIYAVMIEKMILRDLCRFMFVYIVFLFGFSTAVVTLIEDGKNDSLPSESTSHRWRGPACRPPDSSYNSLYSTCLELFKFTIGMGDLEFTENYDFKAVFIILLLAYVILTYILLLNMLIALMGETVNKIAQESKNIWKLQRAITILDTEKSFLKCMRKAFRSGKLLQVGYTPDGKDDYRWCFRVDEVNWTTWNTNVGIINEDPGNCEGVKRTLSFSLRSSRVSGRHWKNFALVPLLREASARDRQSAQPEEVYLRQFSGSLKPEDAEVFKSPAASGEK

This assay concerns the target T1, human capsaicin receptor (Homo sapiens, UniProt Q8NER1).
T1 construct: A cDNA encoding full length human capsaicin receptor recited in U.S. Pat. No. 6,482,611 was subcloned in the plasmid pBK-CMV; expressed in transfected cells
Nature of the assay: Calcium mobilization assay (Example 6). The conditions noted are these: concentration required to provide a 50% decrease in the fluorescence response of cells exposed to one IC50 of capsaicin. It is filed as cell-based. The gist of the method: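 HEK293 clonal lines stably expressing full-length human capsaicin receptor, Fluo-3 AM loaded in KRH buffer pH 7.4. Compounds (final 1-5 μM) preincubated 0.5-6 h at room temperature in the dark, then capsaicin added at its predetermined IC50 concentration. FLIPR calcium signal at 30-60 s; IC50 = antagonist concentration giving 50% decrease.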
In general terms: Calcium assays in cells follow changes in intracellular calcium, usually with a dye or a luminescent sensor.
The IC50 is the concentration at which inhibition is half-maximal. In the case of `FC(F)(F)c1cnc(Nc2ccnc3nc(-c4ncccc4C(F)(F)F)ccc23)cn1` [Compound 131, N-[5-(trifluoromethyl)pyrazin-2-yl]-7-[3-(trifluoromethyl)pyridin-2-yl]-1,8-naphthyridin-4-amine], the concentration for half-maximal inhibition (IC50) is no more than 1000 nM. The figure for `FC(F)(F)c1cnc(Nc2ccnc3nc(-c4ncccc4C(F)(F)F)ccc23)nc1` [Compound 132, 7-[3-(trifluoromethyl)pyridin-2-yl]-N-[5-(trifluoromethyl)pyrimidin-2-yl]-1,8-naphthyridin-4-amine] is no more than 1000 nM; for `CC(=O)c1cc(Nc2ccc(C(F)(F)F)cn2)c2ccc(-c3ncccc3C(F)(F)F)nc2n1` [Compound 133, 1-(7-[3-(trifluoromethyl)pyridin-2-yl]-4-{[5-(trifluoromethyl)pyridin-2-yl]amino}-1,8-naphthyridin-2-yl)ethanone] it is no more than 1000 nM; for `Cc1cccnc1-c1ccc2c(Nc3ccc(C(F)(F)F)cn3)ccnc2n1` [Compound 135, 7-(3-methylpyridin-2-yl)-N-[5-(trifluoromethyl)pyridin-2-yl]-1,8-naphthyridin-4-amine] it is no more than 1000 nM. The figure for `FC(F)(F)c1ccc(Nc2ccnc3nc(-c4ncccc4Cl)ccc23)nc1` [Compound 136, 7-(3-chloropyridin-2-yl)-N-[5-(trifluoromethyl)pyridin-2-yl]-1,8-naphthyridin-4-amine] is no more than 1000 nM. `Cc1cccnc1-c1ccc2c(Nc3ncc(C(F)(F)F)cn3)ccnc2n1` [Compound 137, 7-(3-methylpyridin-2-yl)-N-[5-(trifluoromethyl)pyrimidin-2-yl]-1,8-naphthyridin-4-amine]: the IC50 is no more than 1000 nM.

In the case of `FC(F)(F)c1cnc(Nc2ccnc3nc(-c4ncccc4Cl)ccc23)cn1` [Compound 138, 7-(3-chloropyridin-2-yl)-N-[5-(trifluoromethyl)pyrazin-2-yl]-1,8-naphthyridin-4-amine], the IC50 was no more than 1000 nM. `FC(F)(F)c1cccnc1-c1ccc2c(Nc3ccc(Cl)cn3)ccnc2n1` [Compound 139, N-(5-chloropyridin-2-yl)-7-[3-(trifluoromethyl)pyridin-2-yl]-1,8-naphthyridin-4-amine]: the 50% inhibitory concentration (IC50) is no more than 1000 nM. Under `Cc1ccc(Nc2ccnc3nc(-c4ncccc4C(F)(F)F)ccc23)nc1` [Compound 140, N-(5-methylpyridin-2-yl)-7-[3-(trifluoromethyl)pyridin-2-yl]-1,8-naphthyridin-4-amine] stands no more than 1000 nM. Under `CC(=O)c1ccc(Nc2ccnc3nc(-c4ncccc4C(F)(F)F)ccc23)nc1` [Compound 141, 1-[6-({7-[3-(trifluoromethyl)pyridin-2-yl]-1,8-naphthyridin-4-yl}amino)pyridin-3-yl]ethanone] stands no more than 1000 nM; under `FC(F)(F)c1ccc(Nc2ccnc3nc(-c4ncccc4C(F)(F)F)ccc23)cn1` [Compound 142, 7-[3-(trifluoromethyl)pyridin-2-yl]-N-[6-(trifluoromethyl)pyridin-3-yl]-1,8-naphthyridin-4-amine], no more than 1000 nM; under `CCc1ccc(Nc2ccnc3nc(-c4ncccc4C(F)(F)F)ccc23)nc1` [Compound 143, N-(5-ethylpyridin-2-yl)-7-[3-(trifluoromethyl)pyridin-2-yl]-1,8-naphthyridin-4-amine], no more than 1000 nM.

Turning to `Cc1cccnc1-c1ccc2c(Nc3cnc(C(F)(F)F)cn3)ccnc2n1` [Compound 144, 7-(3-methylpyridin-2-yl)-N-[5-(trifluoromethyl)pyrazin-2-yl]-1,8-naphthyridin-4-amine], the IC50 is no more than 1000 nM.

Regarding `FC(F)(F)c1cnc(Nc2ccnc3nc(-c4ncccc4Cl)ccc23)nc1` [Compound 145, 7-(3-chloropyridin-2-yl)-N-[5-(trifluoromethyl)pyrimidin-2-yl]-1,8-naphthyridin-4-amine], the IC50 is no more than 1000 nM.
